Where two headings read alike, the source gives them in different places.

Assay [1] concerns the target T1, Glucocorticoid Receptor (GR) (Homo sapiens, UniProt P04150).
T1 construct: purchased Invitrogen P2893
T1 sequence (P04150 1-777): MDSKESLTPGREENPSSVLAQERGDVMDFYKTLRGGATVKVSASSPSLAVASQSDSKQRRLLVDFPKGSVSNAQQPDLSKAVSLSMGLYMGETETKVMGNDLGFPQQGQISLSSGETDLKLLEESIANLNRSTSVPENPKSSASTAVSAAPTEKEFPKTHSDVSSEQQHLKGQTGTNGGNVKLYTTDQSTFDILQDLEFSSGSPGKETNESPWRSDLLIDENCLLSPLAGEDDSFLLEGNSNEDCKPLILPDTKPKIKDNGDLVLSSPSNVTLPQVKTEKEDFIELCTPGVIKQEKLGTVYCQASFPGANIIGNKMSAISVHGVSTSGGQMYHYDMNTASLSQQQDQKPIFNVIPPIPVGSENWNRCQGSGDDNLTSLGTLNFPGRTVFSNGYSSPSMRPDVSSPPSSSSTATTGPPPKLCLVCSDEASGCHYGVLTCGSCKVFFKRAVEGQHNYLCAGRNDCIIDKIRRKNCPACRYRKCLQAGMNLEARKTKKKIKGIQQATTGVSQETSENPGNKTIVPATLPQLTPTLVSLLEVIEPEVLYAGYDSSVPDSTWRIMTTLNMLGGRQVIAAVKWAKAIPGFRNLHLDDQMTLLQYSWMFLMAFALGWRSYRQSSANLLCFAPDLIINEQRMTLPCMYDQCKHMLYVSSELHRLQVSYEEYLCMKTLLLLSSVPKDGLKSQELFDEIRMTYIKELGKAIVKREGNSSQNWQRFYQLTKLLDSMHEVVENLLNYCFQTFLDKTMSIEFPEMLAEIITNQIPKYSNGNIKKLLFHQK
Description: GR Fluorescence Polarization Assay (PolarScreen Glucocorticoid Receptor Competitor Assay, Red). Particulars: fluorescence polarization binding ranges. On the procedure:
Fluorescence polarization assays were carried out using the PolarScreen™ Glucocorticoid Receptor Competitor Assay, Red from Invitrogen (P2893). The assay buffer was prepared according to the manufacturer's protocol and used to dilute the fluorescent glucocorticoid and GR. Compounds were prepared and serial diluted 1:4 in DMSO. Compound, fluorescent glucocorticoid and GR were added in a final volume of 20 μL and incubated overnight at 4° C. Fluorescent polarization was measured on the PerkinElmer Envision®. Fluorescence polarization binding ranges measured using GR Fluorescence Polarization Assay: […]
A general note: Fluorescence polarisation rises when a labelled molecule tumbles more slowly, as on binding a larger partner.

In another assay the test system is IL-6. Description: A549 Cell Assay to Measure Inflammation Markers (inhibition of IL-1β-induced IL-6). The assay is classed as cell-based. Particulars: Homo sapiens. On the procedure: A549 Cell Assay to Measure Inflammation Markers
A549 cells were seeded (3E4 cells/well) in 96-well assay plates in culture medium (100 μL/well., F-12 K base media, supplemented with 10% FBS and 100 μ/mL-100 μg/mL Pen-Strep.) After overnight culture in an incubator set to 37° C., 4.9% CO2, and 90% humidity, media was removed from adherent cells by aspiration and replaced with 100 μL/well Assay Medium (F-12 K base media supplemented with 5% charcoal stripped calf sera and 100 U/mL-100 μg/mL Pen-Strep.) Compounds were prepared in DMSO and serial diluted (1:3, 1:4, or 1:5) with DMSO in Dilution Plate(s) to give 10 dilution points for each compound tested. Further dilution (1:250) of compound was made into assay medium and 50 μL/well diluted drug or DMSO/media control was applied to cells. After a 1 h pre-incubation in a temperature, CO2, and humidity controlled incubator, set to 37° C., 50 μL/well of 4 ng/mL IL-1β diluted in assay media, was applied to cultures. Assay plates, with a final volume of 200 μL/well and final concentrations of 0.1% DMSO and 1 ng/mL IL-1β were returned to incubator for a four h incubation period. Next, plates were spun at 183 g (1000 rpm in Beckman/Coulter Allegra 6KR centrifuge) for 10 min. Cell-free supernatant (150 μL/well) was collected and IL-6 was measured by MSD kit, following protocol of manufacturer, and using MSD SECTOR Imager 6000 instrument. Potency of compounds to inhibit IL-6 was determined using the percent reduction of measured IL-6 in wells with compound compared to control wells without drug, and relative to (100% inhibition) positive control compound of 1 μM prednisolone. Results were represented as IC50 and Emax values. To verify that viable cell numbers were similar across plate(s), and not confounding compound IC50 data interpretation, the remaining 50 μL/well of cells and media (after removal of supernatant) were used to run Cell Titer-Glo Assay per directions of manufacturer.

Where [2] appears, read: A549 cells, read-out: A549 cell assay.
[3] abbreviates: A549, read-out: A549 cell assay.

Consider `CC[C@]12CC[C@](O)(C(F)(F)F)C[C@H]1CCCc1cc3c(cnn3-c3ccc(F)cc3)cc12` (single isomer, unassigned) [Example 2], for which the IC50 (in assay [1]; with IL-6 (setting [2])) was below 100 nM each time.

In the case of `CCC[C@@]1(O)CC[C@]2(CC)c3cc4cnn(-c5ccc(F)cc5)c4cc3CCC[C@H]2C1` (single isomer, unassigned) [Example 6], the IC50 (in assay [1]; in the assay with IL-6 (setting [2])) was 100 to 1000 nM throughout.

Consider `CC[C@]12CC[C@](O)(COC)C[C@@H]1CCCc1cc3c(cnn3-c3ccc(F)cc3)cc12` (single isomer, unassigned) [Example 8], for which the values for the IC50 (in assay [1]; in the assay on IL-6 (setting [2])) were 100 to 1000 nM and above 10000 nM, respectively.

With `CCOC[C@@]1(O)CC[C@]2(CC)c3cc4cnn(-c5ccc(F)cc5)c4cc3CCC[C@H]2C1` (single isomer, unassigned) [Example 10], the IC50 was 100 to 1000 nM in assay [1] and above 10000 nM in the assay on IL-6 (setting [2]).

In the case of `C[C@@]1(O)CC[C@@]2(Cc3ccccn3)c3cc4cnn(-c5ccc(F)cc5)c4cc3CCC[C@H]2C1` (single isomer, unassigned) [Example 15], the IC50 (in assay [1]; in the assay with IL-6 (setting [2])) was below 100 nM in each case.

Take `C[C@]1(O)CC[C@]2(Cc3ccccn3)c3cc4cnn(-c5ccc(F)cc5)c4cc3CCC[C@@H]2C1` (single isomer, unassigned) [Example 16]: the IC50 (in assay [1]; in the assay on IL-6 (setting [2])) was below 100 nM each time.

In the case of `N#CC[C@@]1(O)CC[C@@]2(Cc3ccccn3)c3cc4cnn(-c5ccc(F)cc5)c4cc3CCC[C@H]2C1` (single isomer, unassigned) [Example 17], the IC50 (in assay [1]; in the assay on IL-6 (setting [2])) was below 100 nM in each case.

As for `N#CC[C@]1(O)CC[C@]2(Cc3ccccn3)c3cc4cnn(-c5ccc(F)cc5)c4cc3CCC[C@@H]2C1` (single isomer, unassigned) [Example 18], the IC50 (in assay [1]; in the assay on IL-6 (setting [2])) was below 100 nM in each case.

As for `N#C[C@@]12CC[C@](O)(C(F)(F)F)C[C@H]1CCCc1cc3c(cnn3-c3ccc(F)cc3)cc12` (single isomer, unassigned) [Example 72], the figures for the IC50 (in assay [1]; with IL-6 (setting [2])) were below 100 nM and 100 to 1000 nM, respectively.

Turning to `N#C[C@]12CC[C@@](O)(C(F)(F)F)C[C@@H]1CCCc1cc3c(cnn3-c3ccc(F)cc3)cc12` (single isomer, unassigned) [Example 73], the IC50 is 100 to 1000 nM in assay [1] and above 10000 nM in the assay with IL-6 (setting [3]).

`N#CC[C@@]12CC[C@](O)(C(F)(F)F)C[C@H]1CCCc1cc3c(cnn3-c3ccc(F)cc3)cc12` (single isomer, unassigned) [Example 81]: the IC50 (in assay [1]; in the assay on IL-6 (setting [3])) was below 100 nM throughout.

`N#CC[C@]12CC[C@@](O)(C(F)(F)F)C[C@@H]1CCCc1cc3c(cnn3-c3ccc(F)cc3)cc12` (single isomer, unassigned) [Example 82]: the IC50 was below 100 nM in assay [1] and 100 to 1000 nM in the assay on IL-6 (setting [2]).

For the compound `CC(=O)NC[C@]12CC[C@@](O)(C(F)(F)F)C[C@@H]1CCCc1cc3c(cnn3-c3ccc(F)cc3)cc12` (single isomer, unassigned) [Example 83], the IC50 (in assay [1]; in the assay with IL-6 (setting [2])) was 100 to 1000 nM each time.

As for `CC(=O)NC[C@@]12CC[C@](O)(C(F)(F)F)C[C@H]1CCCc1cc3c(cnn3-c3ccc(F)cc3)cc12` (single isomer, unassigned) [Example 84], the IC50 (in assay [1]; in the assay with IL-6 (setting [2])) was below 100 nM in each case.

With `O=C(NC1CC1)[C@]12CC[C@@](O)(C(F)(F)F)C[C@@H]1CCCc1cc3c(cnn3-c3ccc(F)cc3)cc12` (single isomer, unassigned) [Example 87], the values for the IC50 (in assay [1]; in the assay with IL-6 (setting [2])) were below 100 nM and 1000 to 10000 nM, respectively.

As to `CC[C@@]12CC[C@](O)(C(F)(F)F)[C@@H](O)[C@@H]1CCCc1cc3c(cnn3-c3ccc(F)cc3)cc12` (single isomer, unassigned) [Example 96], the IC50 (in assay [1]; in the assay on IL-6 (setting [2])) was below 100 nM throughout.

As for `CC[C@]12CC[C@@](O)(C(F)(F)F)[C@H](O)[C@H]1CCCc1cc3c(cnn3-c3ccc(F)cc3)cc12` (single isomer, unassigned) [Example 97], the IC50 (in assay [1]; in the assay on IL-6 (setting [2])) was below 100 nM in each case.

`CC[C@@]12C[C@@H](O)[C@](O)(C(F)(F)F)C[C@@H]1CCCc1cc3c(cnn3-c3ccc(F)cc3)cc12` (single isomer, unassigned) [Example 98]: the IC50 (in assay [1]; in the assay on IL-6 (setting [2])) was below 100 nM each time.

Regarding `CC[C@]12C[C@H](O)[C@@](O)(C(F)(F)F)C[C@H]1CCCc1cc3c(cnn3-c3ccc(F)cc3)cc12` (single isomer, unassigned) [Example 99], the IC50 (in assay [1]; with IL-6 (setting [2])) was below 100 nM in each case.

`CC[C@@]12CC[C@](O)(C(F)(F)F)C[C@H]1CC[C@H](O)c1cc3c(cnn3-c3ccc(F)cc3)cc12` (single isomer, unassigned) [Example 104]: the IC50 (in assay [1]; in the assay on IL-6 (setting [2])) was below 100 nM each time.

As for `CC[C@@]12CC[C@](O)(C(F)(F)F)C=C1CCCc1cc3c(cnn3-c3ccc(F)cc3)cc12` (single isomer, unassigned) [Example 106], the IC50 (in assay [1]; in the assay with IL-6 (setting [2])) was below 100 nM in each case.

As to `CC[C@]12CC[C@@](O)(C(F)(F)F)C=C1CCCc1cc3c(cnn3-c3ccc(F)cc3)cc12` (single isomer, unassigned) [Example 107], the results for the IC50 (in assay [1]; in the assay on IL-6 (setting [2])) were below 100 nM and 100 to 1000 nM, respectively.

Consider `C#C[C@@]1(O)CC[C@@]2(CC)c3cc4cnn(-c5ccc(F)cc5)c4cc3CCC[C@@H]2C1` (single isomer, unassigned) [Example 109], for which the IC50 (in assay [1]; in the assay with IL-6 (setting [2])) was below 100 nM each time.

On to `C#C[C@]1(O)CC[C@]2(CC)c3cc4cnn(-c5ccc(F)cc5)c4cc3CCC[C@H]2C1` (single isomer, unassigned) [Example 110], for which the IC50 was below 100 nM in assay [1] and 100 to 1000 nM in the assay with IL-6 (setting [2]).

On to `CC[C@@]12CC(=O)[C@](O)(C(F)(F)F)C[C@H]1CCCc1cc3c(cnn3-c3ccc(F)cc3)cc12` (single isomer, unassigned) [Example 115], for which the IC50 (in assay [1]; in the assay on IL-6 (setting [2])) was 100 to 1000 nM each time.

Take `CC[C@]12CC(=O)[C@@](O)(C(F)(F)F)C[C@@H]1CCCc1cc3c(cnn3-c3ccc(F)cc3)cc12` (single isomer, unassigned) [Example 116]: the IC50 (in assay [1]; in the assay with IL-6 (setting [2])) was 100 to 1000 nM throughout.

Consider `CC[C@@]12C[C@@](C)(O)[C@](O)(C(F)(F)F)C[C@H]1CCCc1cc3c(cnn3-c3ccc(F)cc3)cc12` (single isomer, unassigned) [Example 117], for which the IC50 (in assay [1]; in the assay with IL-6 (setting [2])) was below 100 nM in each case.

As for `CC[C@]12C[C@](C)(O)[C@@](O)(C(F)(F)F)C[C@@H]1CCCc1cc3c(cnn3-c3ccc(F)cc3)cc12` (single isomer, unassigned) [Example 118], the IC50 in assay [1] is below 100 nM; in the assay on IL-6 (setting [2]), 100 to 1000 nM.

As for `CC[C@@]12C[C@@H](O)[C@](O)(C(F)(F)F)C[C@H]1CCCc1cc3c(cnn3-c3ccc(F)cc3)cc12` (single isomer, unassigned) [Example 119], the IC50 (in assay [1]; in the assay on IL-6 (setting [2])) was below 100 nM in each case.

Consider `CC[C@@]12C[C@H](O)[C@](O)(C(F)(F)F)C[C@H]1CCCc1cc3c(cnn3-c3ccc(F)cc3)cc12` (single isomer, unassigned) [Example 121], for which the IC50 (in assay [1]; in the assay on IL-6 (setting [2])) was below 100 nM throughout.

Values taken from patent US9193744B2, “Heterocyclic nuclear hormone receptor modulators” (AbbVie Inc., priority 2012, dated 2015).
